In ChEMBL document CHEMBL5385882, “Rational design and appraisal of selective Cdc2-Like kinase 1 (Clk1) inhibitors as novel autophagy inducers for the treatment of acute liver injury (ALI)” (Eur J Med Chem, 2023):
Activity calls are given as the source filed them. The rule behind the calls is not given here.

Tests used:
[1] = target: T1, Dual specificity protein kinase CLK1 (Homo sapiens, UniProt P49759); experiment: Inhibition of human 130-end recombinant CLK1 assessed as remaining activity using ERMRPRKRQGSVR as substrate by [gamma-32P]ATP binding based scintillation counting based analysis
Target sequence in this assay (P49759 whole entry): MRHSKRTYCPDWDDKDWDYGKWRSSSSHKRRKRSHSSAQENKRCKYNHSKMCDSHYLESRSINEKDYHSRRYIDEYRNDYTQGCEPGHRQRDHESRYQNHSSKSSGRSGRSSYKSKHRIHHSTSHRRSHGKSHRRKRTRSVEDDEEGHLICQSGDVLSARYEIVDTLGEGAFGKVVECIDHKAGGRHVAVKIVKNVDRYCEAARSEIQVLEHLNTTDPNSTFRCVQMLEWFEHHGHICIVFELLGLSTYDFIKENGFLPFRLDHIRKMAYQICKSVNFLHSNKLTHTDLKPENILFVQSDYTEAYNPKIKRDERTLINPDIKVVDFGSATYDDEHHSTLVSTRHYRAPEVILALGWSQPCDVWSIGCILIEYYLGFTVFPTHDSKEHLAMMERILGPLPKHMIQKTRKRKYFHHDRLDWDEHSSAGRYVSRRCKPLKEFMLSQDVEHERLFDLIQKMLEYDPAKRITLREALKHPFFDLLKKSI

[2] = target: T2, Dual specificity tyrosine-phosphorylation-regulated kinase 1A (Homo sapiens, UniProt Q13627); experiment: Inhibition of human full length recombinant DYRK1A assessed as remaining activity using RRRFRPASPLRGPP as substrate by [gamma-32P]ATP binding based scintillation counting based analysis
Homo sapiens = species on record: Homo sapiens; experiment: Selectivity index, ratio of IC50 for inhibition of human full length recombinant DYRK1A to IC50 for inhibition of human 130-end recombinant CLK1
[3] = target: T1, Dual specificity protein kinase CLK1; experiment: Inhibition of human 130-end recombinant CLK1 assessed as remaining activity using ERMRPRKRQGSVR as substrate at 100 nM by [gamma-32P]ATP binding based scintillation counting based analysis relative to control
Target sequence in this assay (P49759 whole entry, looked up): as the sequence (P49759 whole entry) above

[4] = target: T2, Dual specificity tyrosine-phosphorylation-regulated kinase 1A; experiment: Inhibition of human full length recombinant DYRK1A assessed as remaining activity using RRRFRPASPLRGPP as substrate at 100 nM by [gamma-32P]ATP binding based scintillation counting based analysis relative to control
[5] = Metabolic stability in human liver microsomes assessed as clearance at 10 uM incubated for 5 mins in the presence of NADPH-generating system by LC-MS/MS analysis; assay type: ADME, Microsome
[6] = Metabolic stability in human liver microsomes assessed as half life at 10 uM incubated for 5 mins in the presence of NADPH-generating system by LC-MS/MS analysis; assay type: ADME, Microsome
[7] = target: Dual specificity protein kinase CLK1 (Mus musculus) (UniProt P22518); experiment: Inhibition of Clk1 in mouse BNL CL.2 cells assessed as redistribution of serine/arginine (SR) proteins from nucleoplasmic (active form) to nuclear speckles (storage form) at 10 uM incubated for 24 hrs by immunofluorescence assay; assay type: cell-based
Chain of Dual specificity protein kinase CLK1 (Mus musculus) (P22518 whole entry, looked up): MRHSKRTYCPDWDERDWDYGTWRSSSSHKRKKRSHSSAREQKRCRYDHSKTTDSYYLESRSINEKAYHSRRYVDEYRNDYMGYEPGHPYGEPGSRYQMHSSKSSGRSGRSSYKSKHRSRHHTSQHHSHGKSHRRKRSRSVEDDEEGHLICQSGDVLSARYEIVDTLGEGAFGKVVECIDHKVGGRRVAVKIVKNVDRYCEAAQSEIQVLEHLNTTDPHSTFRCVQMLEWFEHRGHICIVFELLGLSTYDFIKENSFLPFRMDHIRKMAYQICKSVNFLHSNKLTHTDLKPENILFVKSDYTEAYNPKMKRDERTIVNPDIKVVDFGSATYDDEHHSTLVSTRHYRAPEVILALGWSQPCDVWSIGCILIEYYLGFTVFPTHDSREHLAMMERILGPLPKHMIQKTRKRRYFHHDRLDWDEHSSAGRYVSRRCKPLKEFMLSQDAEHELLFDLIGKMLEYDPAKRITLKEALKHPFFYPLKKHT

SMILES | IC50 [1] | IC50 [2] | Selectivity Index (Homo sapiens) | Activity [3] | Activity [4] | CLH [5] | half-life at 10 µM [6] | inhibition [7]
COc1ccc(-c2c[nH]c3ncc(NCc4cc(F)cc(F)c4)cc23)cc1 | 15 nM | 97 nM | 6.5 | 3% | 40% |  |  | 
COc1ccc(-c2cnc3ccc(NC4CCCC4)cn23)cc1 |  |  |  | 99% | 126% |  |  | 
CN1CCN(c2ccc(CNc3cnc4[nH]cc(-c5cccnc5)c4c3)cc2)CC1 | 13 nM | 1750 nM | 135 | 9% | 85% |  |  | 
Nc1cccc(-c2c[nH]c3ncc(NCc4cc(F)cc(F)c4)cc23)c1 | 66 nM | 389 nM | 5.9 | 28% | 88% |  |  | 
c1cncc(-c2c[nH]c3ncc(NCc4ccc(N5CCOCC5)cc4)cc23)c1 | 46 nM | 1700 nM | 36.9 | 28% | 83% |  |  | 
COc1cc(Cl)ccc1C(=O)Nc1cnc2[nH]cc(-c3cccnc3)c2c1 | 25 nM | 2040 nM | 81.4 | 17% | 84% |  |  | 
CCCc1ccc(-c2c[nH]c3ncc(NCc4cc(F)cc(F)c4)cc23)cc1 |  |  |  | 85% | 111% |  |  | 
Fc1ccc(/C=N/c2cnc3[nH]cc(-c4cncc(F)c4)c3c2)cc1 | 510 nM | 1350 nM |  | 70% | 86% |  |  | 
Fc1cc(F)cc(CNc2cnc3[nH]cc(-c4cccnc4)c3c2)c1 | 18 nM | 288 nM | 16 | 12% | 91% |  |  | 
O=C(Nc1cc(C(F)(F)F)cc(C(F)(F)F)c1)Nc1cnc2[nH]cc(-c3cncc(F)c3)c2c1 | 1870 nM | 5680 nM |  | 88% | 106% |  |  | 
Fc1cc(F)cc(CNc2cnc3[nH]cc(-c4cc5ccccc5s4)c3c2)c1 | 252 nM | 2210 nM |  | 65% | 108% |  |  | 
COc1cncc(-c2c[nH]c3ncc(NC(=O)c4ccc(Cl)cc4OC)cc23)c1 | 5 nM | 3500 nM | 700 | 8% | 95% | 15 mL/min/g | 101 min | 
COc1ccc(-c2cnc3ccc(NCc4ccc(N(C)C)cc4)cn23)cc1 |  |  |  | 103% | 101% |  |  | 
O=C(Nc1cnc2[nH]cc(-c3cccnc3)c2c1)c1ccc(F)cc1 | 31 nM | 2250 nM | 72.6 | 30% | 90% |  |  | 
COc1cncc(-c2c[nH]c3ncc(NCc4ccc(F)cc4)cc23)c1 | 15 nM | 2330 nM | 156 | 6% | 88% | 76.8 mL/min/g | 20.3 min | 
Fc1cccc(CNc2cnc3[nH]cc(-c4cccnc4)c3c2)c1 | 15 nM | 475 nM | 31.6 | 4% | 98% |  |  | 
COc1cncc(-c2c[nH]c3ncc(NCc4cccc(F)c4)cc23)c1 | 17 nM | 2030 nM | 119 | 2% | 89% | 80.4 mL/min/g | 19.5 min | 
O=C(Nc1cnc2[nH]cc(-c3cccnc3)c2c1)c1ccc(C(F)(F)F)c(F)c1 | 89 nM | 3650 nM | 41 | 45% | 87% |  |  | 
Nc1ncc(-c2c[nH]c3ncc(NCc4cc(F)cc(F)c4)cc23)cn1 | 75 nM | 590 nM | 7.8 | 26% | 102% |  |  | 
Fc1cccc(/C=N/c2cnc3[nH]cc(-c4cncc(F)c4)c3c2)c1 | 454 nM | 653 nM |  | 61% | 74% |  |  | 

SMILES | IC50 [1] | IC50 [2] | Selectivity Index (Homo sapiens) | Activity [3] | Activity [4] | CLH [5] | half-life at 10 µM [6] | inhibition [7]
COc1ccc(-c2cnc3ccc(NCc4cc(F)cc(F)c4)cn23)cc1 | 569 nM | 465 nM | 0.8 | 105% | 91% |  |  | 
COc1cncc(-c2c[nH]c3ncc(NCc4cc(F)cc(F)c4)cc23)c1 | 16 nM | 1320 nM | 82.7 | 9% | 81% | 88.7 mL/min/g | 32.1 min | 
CC(C)(C)c1cccc(CNc2cnc3[nH]cc(-c4cccnc4)c3c2)c1 | 45 nM | 988 nM | 21.9 | 27% | 103% |  |  | 
CN1CCN(c2ccc(CNc3cnc4[nH]cc(-c5cncc(F)c5)c4c3)cc2)CC1 | 42 nM | 5970 nM | 142 | 19% | 99% | 79.2 mL/min/g | 17.5 min | 
COc1cncc(-c2c[nH]c3ncc(NC(=O)c4ccc(F)cc4)cc23)c1 | 24 nM | 2060 nM | 85.8 | 13% | 81% | 13.8 mL/min/g | 115 min | 
Nc1ccc(-c2cnc3[nH]cc(-c4ccc(O)cc4)c3c2)cc1 | 34 nM |  | 1.3 |  |  |  |  | Active
COc1ccc(-c2cnc3ccc(NCc4ccc(F)cc4)cn23)cc1 |  |  |  | 91% | 110% |  |  | 
O=C(Nc1cnc2[nH]cc(-c3cncc(F)c3)c2c1)c1ccco1 | 389 nM | 3010 nM |  | 64% | 88% |  |  | 
O=S(=O)(Nc1cnc2[nH]cc(-c3cncc(F)c3)c2c1)c1ccc(F)cc1 | 667 nM | 3660 nM |  | 70% | 94% |  |  | 
O=C(Nc1cnc2[nH]cc(-c3cncc(F)c3)c2c1)c1ccc(F)cc1 | 64 nM | 2900 nM | 45.3 | 37% | 83% | < 12 mL/min/g | > 120 min | 
COc1cncc(-c2c[nH]c3ncc(NCc4ccc(N5CCOCC5)cc4)cc23)c1 | 30 nM | 1900 nM | 63.2 | 16% | 85% | 65.4 mL/min/g | 21.2 min | 
FC(F)(F)c1cccc(CNc2cnc3[nH]cc(-c4cccnc4)c3c2)c1 | 45 nM | 689 nM | 15.3 | 18% | 96% |  |  | 
Fc1cc(F)cc(CNc2cnc3[nH]cc(-c4ccc5ccccc5c4)c3c2)c1 | 476 nM | > 5000 nM |  | 80% | 106% |  |  | 
CCN(CC)c1ccc(CNc2cnc3[nH]cc(-c4cccnc4)c3c2)cc1 | 70 nM | 1560 nM | 22.4 | 33% | 98% |  |  | 
COc1cc(Cl)ccc1C(=O)Nc1cnc2[nH]cc(-c3cncc(F)c3)c2c1 | 66 nM | 3990 nM | 60.5 | 20% | 92% | < 12 mL/min/g | > 120 min | 
NC(=O)c1cccc(-c2c[nH]c3ncc(NCc4cc(F)cc(F)c4)cc23)c1 | 762 nM | > 5000 nM |  | 89% | 105% |  |  | 
Nc1ccc(-c2c[nH]c3ncc(NCc4cc(F)cc(F)c4)cc23)cc1 | 89 nM | 561 nM | 6.3 | 36% | 101% |  |  | 
CC(C)c1cccc(CNc2cnc3[nH]cc(-c4cccnc4)c3c2)c1 | 23 nM | 2390 nM | 117 | 16% | 108% |  |  | 
Fc1cc(F)cc(CNc2cnc3[nH]cc(C4=CCCCC4)c3c2)c1 | 324 nM | 2460 nM |  | 74% | 99% |  |  | 
Fc1cc(F)cc(CNc2cnc3[nH]cc(-c4ccc(C(F)(F)F)cc4)c3c2)c1 | 458 nM | 765 nM | 1.7 | 80% | 108% |  |  | 
